Results on eleven molecules are retold here after patent US20240116985A1, “STAPLED PEPTIDES AND METHODS THEREOF” (priority 2020, published 2024).

Read-outs that look alike come from different tables or passages of the source.

Usually chromatographic logD stands for lipophilicity estimated from chromatographic retention. A high value points to higher lipophilicity.

The target in data set [1] is T1, full-length beta-Catenin (Uniprot ID P35222) (Homo sapiens, UniProt P35222).
T1 construct: 10 nM full-length beta-Catenin (Uniprot ID P35222)
T1 sequence (P35222 1-781): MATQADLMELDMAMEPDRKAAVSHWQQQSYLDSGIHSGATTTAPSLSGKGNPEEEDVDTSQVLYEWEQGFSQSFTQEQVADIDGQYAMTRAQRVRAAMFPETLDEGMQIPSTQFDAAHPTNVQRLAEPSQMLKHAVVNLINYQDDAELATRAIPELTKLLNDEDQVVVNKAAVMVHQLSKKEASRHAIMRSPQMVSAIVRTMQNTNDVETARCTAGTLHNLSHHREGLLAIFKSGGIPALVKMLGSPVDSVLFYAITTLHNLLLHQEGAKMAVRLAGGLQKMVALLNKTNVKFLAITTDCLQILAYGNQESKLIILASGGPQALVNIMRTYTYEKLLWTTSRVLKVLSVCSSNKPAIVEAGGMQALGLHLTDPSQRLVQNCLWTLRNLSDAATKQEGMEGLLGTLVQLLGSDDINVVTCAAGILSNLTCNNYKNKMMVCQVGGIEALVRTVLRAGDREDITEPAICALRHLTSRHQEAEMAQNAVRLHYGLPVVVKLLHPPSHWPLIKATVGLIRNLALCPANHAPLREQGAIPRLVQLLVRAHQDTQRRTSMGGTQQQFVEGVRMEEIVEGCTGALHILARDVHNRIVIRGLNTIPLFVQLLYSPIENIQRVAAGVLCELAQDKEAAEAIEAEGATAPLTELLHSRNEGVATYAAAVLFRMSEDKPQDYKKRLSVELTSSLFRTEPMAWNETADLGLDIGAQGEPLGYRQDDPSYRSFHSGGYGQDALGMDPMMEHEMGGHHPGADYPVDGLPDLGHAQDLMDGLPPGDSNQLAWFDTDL
The experiment in a line: Fluorescence polarization IC50 (beta-catenin / 5FAM-TCF4 10-53 competition). The data set is classed as binding. (In general: Fluorescence polarisation rises when a labelled molecule tumbles more slowly, as on binding a larger partner.)

The next data set in a line: CHI Log D procedure. The data set is classed as physicochemical. Conditions: for CHI Log D: pH 7.4; for chromatographic logD: pH 7.4, CHI Log D.
The target in data set [2] is T2, beta-catenin/TCF4 engagement (Homo sapiens, UniProt P35222).
T2 construct: expressed in transfected cells; host or cells: HEK293
T2 sequence (P35222 1-781): T1 sequence (P35222 1-781)
Kind of data set: Nano-BRET target engagement assay (B-cat-Halo & TCF4-Luc in HEK293 cells). The class given is cell-based. The settings on record: for IC50: read-out: NanoBRET Abs IC50; for inhibition at 10 µM: HEK293, 10 uM, read-out: NanoBRET % inh @ 10 uM.

Where [3] appears, read: fluorescence polarization, beta-catenin, read-out: FP EC50.

Regarding `CC(=O)N1CCC[C@]12CC=CCCCC1(CCCC=CCCCOC(=O)N3CC[C@@](C(=O)N[C@@H](Cc4ccsc4)C(=O)N[C@@H](Cc4csc5ccccc45)C(=O)N[C@@H](Cc4c[nH]cn4)C(N)=O)(C3)NC(=O)[C@H](CC(N)=O)NC(=O)[C@H](Cc3ccccc3)NC(=O)[C@H](C)NC(=O)[C@H](C)NC(=O)[C@H](CN(CC(=O)O)CC(F)(F)F)NC(=O)[C@H](CC(=O)O)NC1=O)NC(=O)[C@H](CC(C)(C)C)NC(=O)[C@H](CC(=O)O)NC2=O` (stereo partly drawn) [I-769, Ac-PL3-Asp-Npg-B5-Asp-TfeGA-Ala-Ala-Phe-Asn-PyrS2-3Thi-BztA-His-NH2], the IC50 was found to be 5 nM in data set [1] (read-out: beta-Catenin FP IC50), 13000 nM in data set [2] (Abs IC50) and 13000 nM in data set [2]. In “CHI Log D procedure”, the “CHI Log D” value was determined as 2.307.
In the case of `CC(=O)N1CCC[C@]12CC=CCCCC1(CCCC=CCCCOC(=O)N3CC[C@@](C(=O)N[C@@H](Cc4ccsc4)C(=O)N[C@@H](Cc4csc5ccccc45)C(=O)N[C@@H](Cc4c[nH]cn4)C(N)=O)(C3)NC(=O)[C@H](CC(N)=O)NC(=O)[C@H](Cc3ccccc3)NC(=O)[C@H](C)NC(=O)[C@H](C)NC(=O)[C@H](CN(CC(=O)O)CC(F)(F)F)NC(=O)[C@H](CC(=O)O)NC1=O)NC(=O)[C@H](CC(C)(C)C)NC(=O)[C@H](CC(=O)O)NC2=O` (stereo partly drawn) [I-770, Ac-PL3-Asp-Npg-B5-Asp-TfeGA-Ala-Ala-Phe-Asn-PyrS2-3Thi-BztA-His-NH2], the IC50 in data set [1] (read-out: beta-Catenin FP IC50) turned out to be 5 nM; in data set [2] (Abs IC50) it was 13700 nM; in data set [2], 13700 nM. In addition, the “CHI Log D” value in “CHI Log D procedure” worked out at 2.358.
For the molecule `CC(=O)N1CCC[C@]12CC=CCCCC1(CCCC=CCCCOC(=O)N3CC[C@@](C(=O)N[C@@H](Cc4ccsc4)C(=O)N[C@@H](Cc4csc5ccccc45)C(=O)N[C@@H](Cc4c[nH]cn4)C(N)=O)(C3)NC(=O)[C@H](CCC(N)=O)NC(=O)[C@H](Cc3ccccc3)NC(=O)[C@H](C)NC(=O)[C@H](C)NC(=O)[C@H](CC(=O)O)NC(=O)[C@H](CC(=O)O)NC1=O)NC(=O)[C@H](CC(C)(C)C)NC(=O)[C@H](CC(=O)O)NC2=O` (stereo partly drawn) [I-771, Ac-PL3-Asp-Npg-B5-Asp-Asp-Ala-Ala-Phe-Gln-PyrS2-3Thi-BztA-His-NH2], the IC50 in data set [1] (read-out: beta-Catenin FP IC50) is 5 nM; in data set [2], 37300 nM. The “CHI Log D” value in the data set “CHI Log D procedure” is listed as 2.031.
Regarding `CC(=O)N1CCC[C@]12CC=CCCCC1(CCCC=CCCCOC(=O)N3CC[C@@](C(=O)N[C@@H](Cc4ccsc4)C(=O)N[C@@H](Cc4csc5ccccc45)C(=O)N[C@@H](Cc4c[nH]cn4)C(N)=O)(C3)NC(=O)[C@H](CCC(N)=O)NC(=O)[C@H](Cc3ccccc3)NC(=O)[C@H](C)NC(=O)[C@H](C)NC(=O)[C@H](CC(=O)O)NC(=O)[C@H](CC(=O)O)NC1=O)NC(=O)[C@H](CC(C)(C)C)NC(=O)[C@H](CC(=O)O)NC2=O` (stereo partly drawn) [I-772, Ac-PL3-Asp-Npg-B5-Asp-Asp-Ala-Ala-Phe-Gln-PyrS2-3Thi-BztA-His-NH2], the IC50 in data set [1] (read-out: FP EC50) was 7 nM; in data set [1] (read-out: beta-Catenin FP IC50), 7 nM; in data set [2], more than 20000 nM. In the data set “CHI Log D procedure”, the “CHI Log D” value is listed as 2.069.
`CC(=O)N1CCC[C@]12CC=CCCCC1(CCCC=CCCCOC(=O)N3CC[C@@](C(=O)N[C@@H](Cc4ccsc4)C(=O)N[C@@H](Cc4cn(C)c5ccccc45)C(=O)N[C@@H](Cc4c[nH]cn4)C(N)=O)(C3)NC(=O)[C@H](CC(N)=O)NC(=O)[C@H](Cc3ccccc3)NC(=O)[C@H](C)NC(=O)[C@H](C)NC(=O)[C@H](CC(=O)O)NC(=O)[C@H](CC(=O)O)NC1=O)NC(=O)[C@H](CC(C)(C)C)NC(=O)[C@H](CC(=O)O)NC2=O` (stereo partly drawn) [I-799, Ac-PL3-Asp-Npg-B5-Asp-Asp-Ala-Ala-Phe-Asn-PyrS2-3Thi-1MeW-His-NH2]: the IC50 in data set [1] (read-out: beta-Catenin FP IC50) amounted to 92 nM. In addition, the chromatographic logD in “CHI Log D procedure” is 2.06. Besides, the inhibition at 10 µM in data set [2] turned out to be 0.9%.
On the same counts, the results for `CC(=O)N1CCC[C@]12CC=CCCCC1(CCCC=CCCCOC(=O)N3CC[C@@](C(=O)N[C@@H](Cc4ccsc4)C(=O)N[C@@H](Cc4c[nH]c5ccc(F)cc45)C(=O)N[C@@H](Cc4c[nH]cn4)C(N)=O)(C3)NC(=O)[C@H](CC(N)=O)NC(=O)[C@H](Cc3ccccc3)NC(=O)[C@H](C)NC(=O)[C@H](C)NC(=O)[C@H](CC(=O)O)NC(=O)[C@H](CC(=O)O)NC1=O)NC(=O)[C@H](CC(C)(C)C)NC(=O)[C@H](CC(=O)O)NC2=O` (stereo partly drawn) [I-800, Ac-PL3-Asp-Npg-B5-Asp-Asp-Ala-Ala-Phe-Asn-PyrS2-3Thi-5FW-His-NH2] are 79 nM, 2 and 8.1%.
On to `CC(=O)N1CCC[C@]12CC=CCCCC1(CCCC=CCCCCOC(=O)N3CC[C@@](C(=O)N[C@@H](Cc4ccsc4)C(=O)N[C@@H](Cc4csc5ccccc45)C(=O)N[C@@H](CCC(N)=O)C(=O)N[C@@H](C)C(N)=O)(C3)NC(=O)[C@H](CC(N)=O)NC(=O)[C@H](Cc3ccccc3)NC(=O)[C@H](C)NC(=O)[C@H](C)NC(=O)[C@H](CC(=O)O)NC(=O)[C@H](CC(=O)O)NC1=O)NC(=O)[C@H](CC(C)(C)C)NC(=O)[C@H](CC(=O)O)NC2=O` (stereo partly drawn) [I-825, Ac-PL3-Asp-Npg-B5-Asp-Asp-Ala-Ala-Phe-Asn-PyrS3-3Thi-BztA-Gln-Ala-NH2], for which the results for the IC50 in data set [1] (setting [3]), in data set [1] (read-out: beta-Catenin FP IC50) and in data set [2] were 15 nM, 15 nM and 27500 nM, respectively. The “CHI Log D” value in “CHI Log D procedure” amounted to 2.028.
On to `CC(=O)N1CCC[C@]12CC=CCCCC1(CCCC=CCCCCOC(=O)N3CC[C@@](C(=O)N[C@@H](Cc4ccsc4)C(=O)N[C@@H](Cc4csc5ccccc45)C(=O)N[C@@H](Cc4c[nH]cn4)C(=O)N[C@@H](C)C(N)=O)(C3)NC(=O)[C@H](CC(N)=O)NC(=O)[C@H](Cc3ccccc3)NC(=O)[C@H](C)NC(=O)[C@H](C)NC(=O)[C@H](CC(=O)O)NC(=O)[C@H](CC(=O)O)NC1=O)NC(=O)[C@H](CC(C)(C)C)NC(=O)[C@H](CC(=O)O)NC2=O` (stereo partly drawn) [I-827, Ac-PL3-Asp-Npg-B5-Asp-Asp-Ala-Ala-Phe-Asn-PyrS3-3Thi-BztA-His-Ala-NH2], for which the IC50 in data set [1] (setting [3]) is 13 nM; in data set [1] (read-out: beta-Catenin FP IC50), 13 nM; in data set [2], more than 20000 nM. In addition, the “CHI Log D” value in “CHI Log D procedure” is 2.1.
With `CC(=O)N1CCC[C@]12CC=CCCCC1(CCCC=CCCCCOC(=O)N3CC[C@@](C(=O)N[C@@H](Cc4ccsc4)C(=O)N[C@@H](Cc4csc5ccccc45)C(=O)N[C@@H](CCC(N)=O)C(=O)N[C@H](C)C(N)=O)(C3)NC(=O)[C@H](CC(N)=O)NC(=O)[C@H](Cc3ccccc3)NC(=O)[C@H](C)NC(=O)[C@H](C)NC(=O)[C@H](CC(=O)O)NC(=O)[C@H](CC(=O)O)NC1=O)NC(=O)[C@H](CC(C)(C)C)NC(=O)[C@H](CC(=O)O)NC2=O` (stereo partly drawn) [I-830, Ac-PL3-Asp-Npg-B5-Asp-Asp-Ala-Ala-Phe-Asn-PyrS3-3Thi-BztA-Gln-dAla-NH2], the figures for the IC50 in data set [1] (setting [3]), in data set [1] (read-out: beta-Catenin FP IC50) and in data set [2] were 15 nM, 15 nM and 38500 nM, respectively. The “CHI Log D” value in the data set “CHI Log D procedure” was found to be 2.042.
On to `CC(=O)N1CCC[C@]12CC=CCCCC1(CCCC=CCCCCOC(=O)N3CC[C@@](C(=O)N[C@@H](Cc4ccsc4)C(=O)N[C@@H](Cc4csc5ccccc45)C(=O)N[C@@H](Cc4c[nH]cn4)C(=O)N[C@H](C)C(N)=O)(C3)NC(=O)[C@H](CC(N)=O)NC(=O)[C@H](Cc3ccccc3)NC(=O)[C@H](C)NC(=O)[C@H](C)NC(=O)[C@H](CC(=O)O)NC(=O)[C@H](CC(=O)O)NC1=O)NC(=O)[C@H](CC(C)(C)C)NC(=O)[C@H](CC(=O)O)NC2=O` (stereo partly drawn) [I-832, Ac-PL3-Asp-Npg-B5-Asp-Asp-Ala-Ala-Phe-Asn-PyrS3-3Thi-BztA-His-dAla-NH2], for which the IC50 in data set [1] (setting [3]) came out at 9 nM; in data set [1] (read-out: beta-Catenin FP IC50), 9 nM; in data set [2], 39800 nM. Further, the “CHI Log D” value in the data set “CHI Log D procedure” was 2.095.
Take `CC(=O)N1CCC[C@]12CC=CCCCC1(CCCC=CCCCCOC(=O)N3CC[C@@](C(=O)N[C@@H](Cc4ccsc4)C(=O)N[C@@H](Cc4csc5ccccc45)C(=O)N[C@@H](CC(N)=O)C(=O)N[C@H](C)C(N)=O)(C3)NC(=O)[C@H](CC(N)=O)NC(=O)[C@H](Cc3ccccc3)NC(=O)[C@H](C)NC(=O)[C@H](C)NC(=O)[C@H](CC(=O)O)NC(=O)[C@H](CC(=O)O)NC1=O)NC(=O)[C@H](CC(C)(C)C)NC(=O)[C@H](CC(=O)O)NC2=O` (stereo partly drawn) [I-834, Ac-PL3-Asp-Npg-B5-Asp-Asp-Ala-Ala-Phe-Asn-PyrS3-3Thi-BztA-Asn-dAla-NH2]: the IC50 came out at 14 nM in data set [1] (setting [3]), 14 nM in data set [1] (read-out: beta-Catenin FP IC50) and 33700 nM in data set [2]. Moreover, the “CHI Log D” value in the data set “CHI Log D procedure” was determined as 2.08.
